Measured values reported in publication PMC2606880 (Diabetes, 2009).
Like-named read-outs stand apart in the source and are kept apart here.

Legend:
conscious dogs [1] = assay type: in vivo, dog; settings: vildagliptin-treated group
conscious dogs [2] = experiment: Plasma pancreatic hormone levels; assay type: in vivo, dog; settings: vildagliptin-treated group
conscious dogs [3] = assay type: in vivo, dog; settings: for Net hepatic alanine uptake / Net hepatic glycerol uptake / Plasma free fatty acid level: vildagliptin 1 mg/kg oral, mean ± SE, n = 6
conscious dogs [4] = experiment: Tolerability of oral vildagliptin; assay type: in vivo, dog; settings: vildagliptin 1 mg/kg by stomach gavage; all animals
type 2 diabetic patients = settings: 4 weeks of treatment; cited from earlier work
[5] = cited from earlier work
[6] = basal period, mean ± SEM, n = 6

In the case of `N#C[C@@H]1CCCN1C(=O)CNC12CC3CC(CC(O)(C3)C1)C2` [Vildagliptin], the “increase of nonhepatic glucose uptake from basal” value (conscious dogs [1]; basal period to last 3 h, not significant vs control) is reported as 8.1 ± 1.4 mg/kg/min, the “Nonhepatic glucose uptake (non-HGU)” value (conscious dogs [1]; [6]) is reported as 2.3 ± 0.3 mg/kg/min and the “net hepatic glucose balance (positive = output)” value (conscious dogs [1]; [6]) is reported as 2.1 ± 0.2 mg/kg/min. For the same compound, the “Nonhepatic glucose uptake (non-HGU)” value (conscious dogs [1]; last 3 h, mean ± SEM, n = 6) was 10.4 ± 1.4 mg/kg/min, the “net hepatic glucose fractional extraction” value (conscious dogs [1]; last 3 h, mean ± SEM, n = 6, P < 0.05) was 0.06 ± 0.01 and the “increase of arterial plasma C-peptide” value (conscious dogs [2]; basal period to last 3 h) was 3.6 fold. The “Hepatic sinusoidal plasma glucagon level” value (conscious dogs [2]; [6]) was 43 ± 3 pg/mL, the “arterial plasma C-peptide level” value (conscious dogs [2]; [6]) was 0.39 ± 0.04 ng/mL and the arterial plasma insulin (conscious dogs [2]; [6]) was 6 ± 1 μU/ml. For the same compound, the “hepatic sinusoidal plasma insulin” value (conscious dogs [2]; [6]) was 17 ± 3 μU/ml, the “Hepatic sinusoidal plasma glucagon level” value (conscious dogs [2]; experimental period, mean ± SEM, n = 6) was 23 ± 4 pg/mL and the “increase of arterial plasma insulin from basal period to last 3 h” value (conscious dogs [2]) was 5.5 fold. For the same compound, the “increase of hepatic sinusoidal plasma insulin from basal period to last 3 h” value (conscious dogs [2]) was 5.4 fold, the “average hepatic insulin level greater than in the control group” value (conscious dogs [2]; not statistically significant) was 15 μU/ml and the “Free fatty acid and glycerol levels lower than in control” value (conscious dogs [3]; basal period, vildagliptin-treated group) was ~25%. For the same compound, the “Net hepatic alanine uptake” value (conscious dogs [3]; experimental period 60 min) was 1.8 ± 0.2 µmol/kg/min, the “Net hepatic glycerol uptake” value (conscious dogs [3]; experimental period 60 min) was 0.5 ± 0.2 µmol/kg/min and the “Plasma free fatty acid level” value (conscious dogs [3]; experimental period 60 min) was 111 ± 23 µmol/L. The “Net hepatic alanine uptake” value (conscious dogs [3]; experimental period 120 min) was 2.0 ± 0.5 µmol/kg/min, the “Net hepatic glycerol uptake” value (conscious dogs [3]; experimental period 120 min) was 0.5 ± 0.1 µmol/kg/min and the “Plasma free fatty acid level” value (conscious dogs [3]; experimental period 120 min) was 88 ± 26 µmol/L. For the same compound, the “Net hepatic alanine uptake” value (conscious dogs [3]; experimental period 180 min) was 2.2 ± 0.2 µmol/kg/min, the “Net hepatic glycerol uptake” value (conscious dogs [3]; experimental period 180 min) was 0.4 ± 0.2 µmol/kg/min and the “Plasma free fatty acid level” value (conscious dogs [3]; experimental period 180 min) was 71 ± 25 µmol/L. For the same compound, the “Net hepatic alanine uptake” value (conscious dogs [3]; experimental period 210 min) was 2.4 ± 0.2 µmol/kg/min, the “Net hepatic glycerol uptake” value (conscious dogs [3]; experimental period 210 min) was 0.5 ± 0.2 µmol/kg/min and the “Plasma free fatty acid level” value (conscious dogs [3]; experimental period 210 min) was 82 ± 31 µmol/L. For the same compound, the “Net hepatic alanine uptake” value (conscious dogs [3]; experimental period 240 min) was 2.5 ± 0.3 µmol/kg/min, the “Net hepatic glycerol uptake” value (conscious dogs [3]; experimental period 240 min) was 0.3 ± 0.1 µmol/kg/min and the “Plasma free fatty acid level” value (conscious dogs [3]; experimental period 240 min) was 66 ± 15 µmol/L. For the same compound, the tolerability (conscious dogs [4]) was “well tolerated”, the “increase in the rise in active GLP-1 after meals” value (type 2 diabetic patients) was “twofold or greater increase” and the “increase in arterial and portal vein GLP-1 concentrations” value (vildagliptin 1 mg/kg oral vs control) was 70%.

For `CC[C@H](C)[C@H](NC(=O)[C@H](Cc1ccccc1)NC(=O)[C@H](CCC(=O)O)NC(=O)[C@H](CCCCN)NC(=O)[C@H](C)NC(=O)[C@H](C)NC(=O)[C@H](CCC(N)=O)NC(=O)CNC(=O)[C@H](CCC(=O)O)NC(=O)[C@H](CC(C)C)NC(=O)[C@H](Cc1ccc(O)cc1)NC(=O)[C@H](CO)NC(=O)[C@H](CO)NC(=O)[C@@H](NC(=O)[C@H](CC(=O)O)NC(=O)[C@H](CO)NC(=O)[C@@H](NC(=O)[C@H](Cc1ccccc1)NC(=O)[C@@H](NC(=O)CNC(=O)[C@H](CCC(=O)O)NC(=O)[C@H](C)NC(=O)[C@@H](N)Cc1c[nH]cn1)[C@@H](C)O)[C@@H](C)O)C(C)C)C(=O)N[C@@H](C)C(=O)N[C@@H](Cc1c[nH]c2ccccc12)C(=O)N[C@@H](CC(C)C)C(=O)N[C@H](C(=O)N[C@@H](CCCCN)C(=O)NCC(=O)N[C@@H](CCCNC(=N)N)C(N)=O)C(C)C` [GLP-1, Glucagon-like peptide 1], the “share of the kidneys in the degradation of intact GLP-1” value [5] is listed as 10–20% and the clearance (dog, in vivo, iv) is listed as 38 ± 5 mL/min/kg.
